Values of other authors, collected in patent publication US20150237898A1, “STEVIOSIDE BLENDS” (Cargill, Incorporated, priority 2012, published 2015).
Entries after “also recorded” stand apart in the source; their conditions may differ.

Settings: literature

C=C1C[C@@]23CC[C@H]4[C@@](C)(CCC[C@@]4(C)C(=O)O[C@@H]4O[C@H](CO)[C@@H](O)[C@H](O)[C@H]4O)[C@@H]2CC[C@]1(O[C@@H]1O[C@H](CO)[C@@H](O)[C@H](O)[C@H]1O[C@@H]1O[C@H](CO)[C@@H](O)[C@H](O)[C@H]1O)C3 [stevioside]
bitterness compared with other glycosides: much more bitter than Reb A and other glycosides | sweetening power / sweetness compared with other glycosides: much less sweet

C=C1C[C@@]23CC[C@H]4[C@@](C)(CCC[C@@]4(C)C(=O)O[C@@H]4O[C@H](CO)[C@@H](O)[C@H](O)[C@H]4O)[C@@H]2CC[C@]1(O[C@@H]1O[C@H](CO)[C@@H](O)[C@H](O[C@@H]2O[C@H](CO)[C@@H](O)[C@H](O)[C@H]2O)[C@H]1O[C@@H]1O[C@H](CO)[C@@H](O)[C@H](O)[C@H]1O)C3 [Reb A, rebaudioside A]
sweetening power / sweetness compared with other glycosides: highest sweetening power of all the glycosides; also recorded: more potent and more pleasant tasting than stevioside
